Experimental data taken from the supplement of paper PMC11208160.

Assay: recombinant UMI read abundance after kanamycin selection (control-corrected) (log10(CPM+1)); higher = more efficient recombination; extreme values may be limits of the assay; sequences stand for … in AGTGCAGAGAAAATCGGCCAGTTTTCTCTGCCTGCAGTCCGCATGCCGTGGGACCCCTTGGGTTCTAACCTGTTGCCTAGATTTATGCAGCGGACTGCCTTTCTCCCAAAGTGATAAACCGG…AGGTTGGTTTCACT; site = the 11-nt donor
How it was run: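 Values, expressed as log10(CPM+1), derive from recombinant UMI counts converted to CPM, averaged across replicates and scaled by control-derived factors. Plating was with IPTG (0.07 mM) plus kanamycin or unselected, two replicates each. The screen pooled donor and donor-binding-loop pairs for the IS621 bridge recombinase in Escherichia coli.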
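Further: IS621 bridge recombinase in Escherichia coli cells against a fixed T5 target plasmid.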

Point of comparison: “CGCCATCCATGGACCGGTTTTCCCGGTAATCCGTATTTGTT (site CGGAATCCTAA)”, “recombinant UMI read abundance (log10)” value 0. Against it:
- CGATCAACATGGACCGGTTTTCCCGGTAATCCGTATTTGCT (site CGATCAACTAG) — higher, 2.27
- CGATCAACATGGACCGGTTTTCCCGGTAATCCGTATTTGCT (site CGATCACCTAG) — the same, 0
- CGATCAACATGGACCGGTTTTCCCGGTAATCCGTATTTGCT (site CGATCAGCTAG) — the same, 0
- CGATCAACATGGACCGGTTTTCCCGGTAATCCGTATTTGCT (site CGATCATCTAG) — the same, 0
- CGATCATCATGGACCGGTTTTCCCGGTAATCCGTATTTGAT (site CGATCATCTAA) — the same, 0
- CGATCATCATGGACCGGTTTTCCCGGTAATCCGTATTTGAT (site CGATCATCTAC) — higher, 0.213
- CGATCATCATGGACCGGTTTTCCCGGTAATCCGTATTTGAT (site CGATCATCTAG) — the same, 0
- CGATCATCATGGACCGGTTTTCCCGGTAATCCGTATTTGAT (site CGATCATCTAT) — higher, 0.727
- CGATCATCATGGACCGGTTTTCCCGGTAATCCGTATTTGCC (site CGATCATCTAG) — the same, 0
- CGATCATCATGGACCGGTTTTCCCGGTAATCCGTATTTGCC (site CGATCATCTCG) — within 0.2 log units, 0.00333
- CGATCATCATGGACCGGTTTTCCCGGTAATCCGTATTTGCC (site CGATCATCTGG) — the same, 0
- CGATCATCATGGACCGGTTTTCCCGGTAATCCGTATTTGCC (site CGATCATCTTG) — the same, 0
- CGATCATCATGGACCGGTTTTCCCGGTAATCCGTATTTGCG (site CGATCATCTAG) — the same, 0
- CGATCATCATGGACCGGTTTTCCCGGTAATCCGTATTTGCG (site CGATCATCTCG) — higher, 2.32
- CGATCATCATGGACCGGTTTTCCCGGTAATCCGTATTTGCG (site CGATCATCTGG) — the same, 0
- CGATCATCATGGACCGGTTTTCCCGGTAATCCGTATTTGCG (site CGATCATCTTG) — within 0.2 log units, 0.00387
- CGATCCCCATGGACCGGTTTTCCCGGTAATCCGTATTTGGG (site CGATCCCCTCC) — within 0.2 log units, 0.00829
- CGATCCTCATGGACCGGTTTTCCCGGTAATCCGTATTTGGT (site CGATCATCTAG) — the same, 0
- CGATCCTCATGGACCGGTTTTCCCGGTAATCCGTATTTGGT (site CGATCCTCTAC) — higher, 1.74
- CGATCGACATGGACCGGTTTTCCCGGTAATCCGTATTTGGT (site CGATCGACTAA) — higher, 0.276
- CGATCGACATGGACCGGTTTTCCCGGTAATCCGTATTTGGT (site CGATCGACTAC) — higher, 0.733
- CGATCGACATGGACCGGTTTTCCCGGTAATCCGTATTTGGT (site CGATCGACTAG) — the same, 0
- CGATCGACATGGACCGGTTTTCCCGGTAATCCGTATTTGGT (site CGATCGACTAT) — higher, 1.46
- CGATCGACATGGACCGGTTTTCCCGGTAATCCGTATTTGTA (site CGATCGACTAA) — the same, 0
- CGATCGACATGGACCGGTTTTCCCGGTAATCCGTATTTGTA (site CGATCGACTCA) — within 0.2 log units, 0.0107
- CGATCGACATGGACCGGTTTTCCCGGTAATCCGTATTTGTA (site CGATCGACTGA) — the same, 0
- CGATCGACATGGACCGGTTTTCCCGGTAATCCGTATTTGTA (site CGATCGACTTA) — higher, 1.19
- CGATCGTCATGGACCGGTTTTCCCGGTAATCCGTATTTGAT (site CGATCATCTAG) — within 0.2 log units, 0.00648
- CGATCGTCATGGACCGGTTTTCCCGGTAATCCGTATTTGAT (site CGATCGTCTAT) — higher, 0.972
- CGATGATCATGGACCGGTTTTCCCGGTAATCCGTATTTGAG (site CGATGATCTCT) — higher, 3.16
- CGATGATCATGGACCGGTTTTCCCGGTAATCCGTATTTGCC (site CGATCATCTAG) — the same, 0
- CGATGATCATGGACCGGTTTTCCCGGTAATCCGTATTTGCC (site CGATGATCTGG) — higher, 2
- CGATGCGCATGGACCGGTTTTCCCGGTAATCCGTATTTGAT (site CGATGCGCTAT) — higher, 2.43
- CGATGCTCATGGACCGGTTTTCCCGGTAATCCGTATTTGAA (site CAATGCTCTTT) — higher, 0.249
- CGATGCTCATGGACCGGTTTTCCCGGTAATCCGTATTTGAA (site CCATGCTCTTT) — within 0.2 log units, 0.00345
- CGATGCTCATGGACCGGTTTTCCCGGTAATCCGTATTTGAA (site CGATGCTCTTT) — higher, 2.6
- CGATGCTCATGGACCGGTTTTCCCGGTAATCCGTATTTGAA (site CTATGCTCTTT) — within 0.2 log units, 0.0185
- CGATGTCCATGGACCGGTTTTCCCGGTAATCCGTATTTGGA (site CGATGTCCTTC) — within 0.2 log units, 0.0178
- CGATTCGCATGGACCGGTTTTCCCGGTAATCCGTATTTGCT (site CGATTCGCTAG) — higher, 2.12
- CGATTGACATGGACCGGTTTTCCCGGTAATCCGTATTTGTT (site CGATAGACTAA) — within 0.2 log units, 0.0285
- CGATTGACATGGACCGGTTTTCCCGGTAATCCGTATTTGTT (site CGATCGACTAA) — within 0.2 log units, 0.016
- CGATTGACATGGACCGGTTTTCCCGGTAATCCGTATTTGTT (site CGATGGACTAA) — within 0.2 log units, 0.00746
- CGATTGACATGGACCGGTTTTCCCGGTAATCCGTATTTGTT (site CGATTGACTAA) — higher, 1.24
- CGATTTTCATGGACCGGTTTTCCCGGTAATCCGTATTTGCT (site CGATCATCTAG) — the same, 0
- CGATTTTCATGGACCGGTTTTCCCGGTAATCCGTATTTGCT (site CGATTTTCTAG) — higher, 1.29
- CGCAAGACATGGACCGGTTTTCCCGGTAATCCGTATTTGCA (site CGCAAGACTTG) — higher, 1.79
- CGCAATACATGGACCGGTTTTCCCGGTAATCCGTATTTGGT (site CGCAATACTAC) — higher, 1.25
- CGCAATCCATGGACCGGTTTTCCCGGTAATCCGTATTTGTT (site CGAAATCCTAA) — within 0.2 log units, 0.00301
- CGCAATCCATGGACCGGTTTTCCCGGTAATCCGTATTTGTT (site CGCAATCCTAA) — higher, 0.698
- CGCAATCCATGGACCGGTTTTCCCGGTAATCCGTATTTGTT (site CGGAATCCTAA) — the same, 0
- CGCAATCCATGGACCGGTTTTCCCGGTAATCCGTATTTGTT (site CGTAATCCTAA) — the same, 0
- CGCACCCCATGGACCGGTTTTCCCGGTAATCCGTATTTGAC (site CGCACCCCTGT) — higher, 1.43
- CGCACGACATGGACCGGTTTTCCCGGTAATCCGTATTTGCC (site CGCACGACTGG) — higher, 1.95
- CGCAGAACATGGACCGGTTTTCCCGGTAATCCGTATTTGCA (site CGCAGAACTTG) — higher, 1.37
- CGCAGAACATGGACCGGTTTTCCCGGTAATCCGTATTTGTA (site CGCAGAACTTA) — higher, 2.19
- CGCATCCCATGGACCGGTTTTCCCGGTAATCCGTATTTGGC (site CGCATCCCTGC) — higher, 1.75
- CGCATTTCATGGACCGGTTTTCCCGGTAATCCGTATTTGCC (site CGCATTTCTGG) — the same, 0
- CGCCACCCATGGACCGGTTTTCCCGGTAATCCGTATTTGTT (site AGCCACCCTAA) — within 0.2 log units, 0.00879
- CGCCACCCATGGACCGGTTTTCCCGGTAATCCGTATTTGTT (site CGCCACCCTAA) — within 0.2 log units, 0.0407
- CGCCACCCATGGACCGGTTTTCCCGGTAATCCGTATTTGTT (site GGCCACCCTAA) — within 0.2 log units, 0.0241
- CGCCACCCATGGACCGGTTTTCCCGGTAATCCGTATTTGTT (site TGCCACCCTAA) — within 0.2 log units, 0.00618
- CGCCAGACATGGACCGGTTTTCCCGGTAATCCGTATTTGCC (site CGCCAGACTGG) — higher, 1.38
- CGCCATCCATGGACCGGTTTTCCCGGTAATCCGTATTTGTT (site CGCCATCCTAA) — higher, 0.44
- CGCCATGCATGGACCGGTTTTCCCGGTAATCCGTATTTGAC (site CGCCATGCTGT) — higher, 1.6
- CGCCGTACATGGACCGGTTTTCCCGGTAATCCGTATTTGCA (site CGCCGTACTAG) — within 0.2 log units, 0.00535
- CGCCGTACATGGACCGGTTTTCCCGGTAATCCGTATTTGCA (site CGCCGTACTCG) — within 0.2 log units, 0.013
- CGCCGTACATGGACCGGTTTTCCCGGTAATCCGTATTTGCA (site CGCCGTACTGG) — higher, 0.685
